These results are taken from PubChem BioAssay AID1996.

Values after ≈ are worked out from the molar mass of the structure shown. Bounds are passed on as bounds.

The conditions of the data set: buffer; pH 7.4; 200.0 µM.
Broadly, the solubility (kinetic) is solubility judged after dilution from a stock solution rather than from solid. In turn, `CCOc1cc(/C=C2\SC(N)=NC2=O)ccc1O` returned a kinetic solubility of 22.5 µg/mL (≈ 85.1 µM). Take `CCCN(C(=O)CCc1ccc(OC)cc1)c1c(N)n(Cc2ccccc2)c(=O)[nH]c1=O`: the kinetic solubility was 8.9 µg/mL (≈ 20.4 µM). Take `CC(=O)C(Sc1nccc(-c2cccs2)n1)C(C)=O`: the kinetic solubility came out at 40.5 µg/mL (≈ 139 µM). The result for `CC(OC(=O)c1ccccc1)C(=O)NCc1ccco1` (stereo unspecified) reads over 41 µg/mL; that for `O=C(c1ccc(Cn2cc([N+](=O)[O-])cn2)o1)N1CCCC1`, over 43.5 µg/mL; that for `Clc1ccc(-c2noc(CN3CCOCC3)n2)cc1`, over 42 µg/mL. The result for `Cc1cc(=O)[nH]c(Nc2ccc(N(C)C)cc2)n1` reads over 36.6 µg/mL; that for `COc1ccc(CCC(=O)Nc2ccc(Cn3ccnc3)cc2)cc1`, 44.2 µg/mL (≈ 132 µM); that for `c1ccc2[nH]c(SCC3CCCCO3)nc2c1` (stereo unspecified), over 37.3 µg/mL. The result for `Cc1ccc(SCC(=O)N=C2NC(=O)CS2)cc1` reads 35.9 µg/mL (≈ 128 µM); that for `CN1CCN(c2nc(-c3ccccc3Cl)nc3ccccc23)CC1`, over 50.8 µg/mL. `COc1ccc(CCNC2CC(=O)N(C3CCCCC3)C2=O)cc1OC` (stereo unspecified) returned a kinetic solubility of 46.4 µg/mL (≈ 129 µM). The result for `CCOC(=O)CSCc1csc(CC(=O)Nc2ccccc2C)n1` reads 52.4 µg/mL (≈ 144 µM); that for `CCc1ccc(OCC(=O)N2CC(C(=O)OC)Oc3ccccc32)cc1` (stereo unspecified), 36.6 µg/mL (≈ 103 µM). Consider `Fc1ccc(-n2cc(-c3ccccc3)c3c(=S)nc[nH]c32)cc1`, for which the solubility (kinetic) is under 0.2 µg/mL.

Compound `Cc1c(C)n(CCCN(C)C)c2ncnc(Nc3ccccc3)c12` registered a solubility (kinetic) of over 48.5 µg/mL. Take `COc1cc2ccccc2cc1C(=O)Nc1ccccc1C`: the kinetic solubility is under 0.6 µg/mL.

Consider `O=[N+]([O-])C1=CC=C2C(=NC3(CCCCC3)N2O)C1=NC1CCCCC1`, for which the kinetic solubility amounted to 24.6 µg/mL (≈ 71.4 µM). As for `O=C(COc1ccc(Cl)cc1Br)NC(=O)NC1CCCC1`, the solubility (kinetic) was 6.4 µg/mL (≈ 17 µM).

In the case of `COc1ccc2cc(C#N)c(SCC(=O)Nc3nonc3C)nc2c1`, the kinetic solubility worked out at 3.4 µg/mL (≈ 9.57 µM). `O=C(COC(=O)Cc1c(Cl)cccc1Cl)NCc1ccco1` registered a solubility (kinetic) of over 51.3 µg/mL.

In the case of `CNC(=O)Nc1ccc(C(O)(C(=O)OC)C(F)(F)F)cc1` (stereo unspecified), the solubility (kinetic) was over 45.9 µg/mL. The value for `O=c1[nH]c(=S)[nH]c2scc(-c3ccc(Br)cc3)c12` was 9.1 µg/mL (≈ 26.8 µM); that for `COc1ccc2[nH]c3c(NCCCOC(C)C)ncnc3c2c1` was 44.7 µg/mL (≈ 142 µM); that for `Cc1cc(C(=O)OCC(N)=O)c(C)n1-c1ccccc1` was 40.1 µg/mL (≈ 147 µM). The result for `CC(Cc1ccccc1)NC(=O)c1cc([N+](=O)[O-])ccc1Cl` (stereo unspecified) reads 10 µg/mL (≈ 31.4 µM); that for `CCOc1ccc2nc(NCCNC(=O)C(C)(C)C)c(C)cc2c1`, 47.1 µg/mL (≈ 143 µM); that for `COc1ccc(CCNCC(=O)Nc2ccc(OC(F)F)cc2)cc1`, 34.4 µg/mL (≈ 98.2 µM).

As to `CN(CCc1ccccn1)C(=O)Nc1cccc(Cl)c1`, the solubility (kinetic) was 38.6 µg/mL (≈ 133 µM).

Turning to `C[n+]1cccc(C(=O)Nc2ccccc2)c1.[Cl-]`, the kinetic solubility worked out at 30 µg/mL.

With `CC(C)c1cc(=O)n2c(nc3ccccc32)[nH]1`, the solubility (kinetic) was over 34.1 µg/mL. The compound `O=C(NC(=S)Nc1ccccc1Cl)c1ccco1` came in with a kinetic solubility of 2.5 µg/mL (≈ 8.91 µM).

`COc1ccc(C(=O)NCc2cc3ccccc3n2C)cc1` gave a solubility (kinetic) of 3.7 µg/mL (≈ 12.6 µM). The value for `O=C(Cc1cccs1)Nc1ccc([N+](=O)[O-])cc1` was 39 µg/mL (≈ 149 µM); that for `COc1ccccc1C(=O)NC(=O)Nc1cccc(Cl)c1` was under 0.3 µg/mL; that for `CC(C)c1nc2sc3c(c2c(=O)[nH]1)CC(C)(C)OC3` was 6.4 µg/mL (≈ 23 µM). The result for `CC(C)(C)c1ccc(N2C(=O)CC(C/C=C/c3ccccc3)C2=O)cc1` (stereo unspecified) reads under 0.7 µg/mL. `Cc1ccc(C(=O)OCC(=O)NC2CCS(=O)(=O)C2)c(C)c1` (stereo unspecified) had a kinetic solubility of over 48.8 µg/mL. With `O=C(N/N=C/c1ccccc1O)c1ccncc1`, the solubility (kinetic) is over 36.2 µg/mL. Regarding `O=C(Nc1ccc2c(c1)CCC2)c1cc(F)cc(F)c1`, the solubility (kinetic) was found to be 3.7 µg/mL (≈ 13.5 µM). The result for `CCOC(=O)N1CCN(C(=O)c2cc3ccccc3o2)CC1` reads over 45.3 µg/mL.
